Reference: patent US20190119284A1, “ErbB Inhibitors and Uses Thereof” (The Regents of the University of California, priority 2016, published 2019)

Experiments:
[1] = system: 2YF/3wt + IL-3 Ba/F3 cells; test: Ba/F3 proliferation assay, 2YF/3wt + IL-3; type: cell-based; conditions: Mus musculus, BaF3; Table 4; ± S.D., n = 3; 48 h Cell Titer Glo
Procedure: To validate the screen and test the effectiveness of counter-screening with either the same 2YF/3wt Ba/F3 cell line or the parental Ba/F3's in the presence of IL-3 to remove cytotoxic primary hits, we first tested a panel of kinase inhibitors with established mechanisms of action.
Proliferation Assays. For adherent cell lines, cells were plated onto opaque white 96 well plates (Greiner cat #655083) and allowed to adhere overnight. The following day media was changed to fresh media that contained either DMSO or the indicated concentration of drug plus NRG (50 ng/mL final concentration) as indicated. Plates were incubated at 37° C. for 72 h and proliferation was read out using Cell Titer Glo (Promega) according to the manufacturer's protocol. For Ba/F3 cell proliferation, cells, drug dilution, and any necessary growth factors (10 ng/mL IL-3 or 6.25 ng/mL NRG) were combined in a well of a 96 well plate. Plates were incubated at 37° C. for 48 h and proliferation was read out using Cell Titer Glo according to the manufacturer's protocol. For all normalized assays, proliferation was normalized to the DMSO control condition. All graphs were plotted in GraphPad Prism 6 and fit with a non-linear regression of the log(inhibitor) vs response with a variable slope where shown. All graphs are averages (+/−standard deviation) of biological triplicates each performed in technical triplicate unless otherwise noted. If only one biological replicate was performed standard deviations were derived from the technical replicates.

[2] = system: HER2/HER3 heterodimer signaling in MCF-7 cells; test: HER2/HER3 signaling in MCF-7 cells, pre-treat vs simultaneous NRG addition; type: cell-based
Procedure: FIGS. 2A-2D. […] FIG. 2B: NRG rescues the 72 h proliferation of CW-2 cells, which contain an activating mutation in HER3 (E928G), from HER2 inhibitors (mean±SD, n=3).
FIG. 17. MCF-7 cells were serum starved for 24 h and then either treated with compound 3 for 15 min followed by a 15 min NRG stimulation (15 min pre-treat), or compound 3 and NRG were added simultaneously for 15 min (simultaneous addition).

[3] = target: PIM-1-KINASE (Homo sapiens, UniProt P11309); test: Nanosyn in vitro kinase profiling: PIM-1-KINASE; type: biochemical; conditions: for inhibition at 1 µM: compound at 1 μM
Chain of PIM-1-KINASE (P11309 whole entry): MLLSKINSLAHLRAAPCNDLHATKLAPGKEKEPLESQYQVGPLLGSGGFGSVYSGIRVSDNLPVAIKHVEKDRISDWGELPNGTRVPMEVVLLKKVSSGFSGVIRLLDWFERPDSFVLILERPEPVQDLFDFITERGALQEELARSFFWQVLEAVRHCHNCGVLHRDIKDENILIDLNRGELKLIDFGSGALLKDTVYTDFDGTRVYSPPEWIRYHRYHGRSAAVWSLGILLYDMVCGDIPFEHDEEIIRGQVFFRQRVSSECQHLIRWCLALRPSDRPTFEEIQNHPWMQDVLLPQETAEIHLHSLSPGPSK
Procedure: (§1) This was confirmed by in vitro profiling against a panel of kinases, with compound 2 only showing potent inhibition of EGFR and Ab1 (Table 2).
(§2) In vitro Kinome Screen. In vitro profiling of compound 2 at 100 nM was conducted by Nanosyn.

[4] = target: IGF1R (Homo sapiens, UniProt P08069); test: Nanosyn in vitro kinase profiling: IGF1R; type: biochemical; conditions: for inhibition at 1 µM: compound at 1 μM
Chain of IGF1R (P08069 31-1367): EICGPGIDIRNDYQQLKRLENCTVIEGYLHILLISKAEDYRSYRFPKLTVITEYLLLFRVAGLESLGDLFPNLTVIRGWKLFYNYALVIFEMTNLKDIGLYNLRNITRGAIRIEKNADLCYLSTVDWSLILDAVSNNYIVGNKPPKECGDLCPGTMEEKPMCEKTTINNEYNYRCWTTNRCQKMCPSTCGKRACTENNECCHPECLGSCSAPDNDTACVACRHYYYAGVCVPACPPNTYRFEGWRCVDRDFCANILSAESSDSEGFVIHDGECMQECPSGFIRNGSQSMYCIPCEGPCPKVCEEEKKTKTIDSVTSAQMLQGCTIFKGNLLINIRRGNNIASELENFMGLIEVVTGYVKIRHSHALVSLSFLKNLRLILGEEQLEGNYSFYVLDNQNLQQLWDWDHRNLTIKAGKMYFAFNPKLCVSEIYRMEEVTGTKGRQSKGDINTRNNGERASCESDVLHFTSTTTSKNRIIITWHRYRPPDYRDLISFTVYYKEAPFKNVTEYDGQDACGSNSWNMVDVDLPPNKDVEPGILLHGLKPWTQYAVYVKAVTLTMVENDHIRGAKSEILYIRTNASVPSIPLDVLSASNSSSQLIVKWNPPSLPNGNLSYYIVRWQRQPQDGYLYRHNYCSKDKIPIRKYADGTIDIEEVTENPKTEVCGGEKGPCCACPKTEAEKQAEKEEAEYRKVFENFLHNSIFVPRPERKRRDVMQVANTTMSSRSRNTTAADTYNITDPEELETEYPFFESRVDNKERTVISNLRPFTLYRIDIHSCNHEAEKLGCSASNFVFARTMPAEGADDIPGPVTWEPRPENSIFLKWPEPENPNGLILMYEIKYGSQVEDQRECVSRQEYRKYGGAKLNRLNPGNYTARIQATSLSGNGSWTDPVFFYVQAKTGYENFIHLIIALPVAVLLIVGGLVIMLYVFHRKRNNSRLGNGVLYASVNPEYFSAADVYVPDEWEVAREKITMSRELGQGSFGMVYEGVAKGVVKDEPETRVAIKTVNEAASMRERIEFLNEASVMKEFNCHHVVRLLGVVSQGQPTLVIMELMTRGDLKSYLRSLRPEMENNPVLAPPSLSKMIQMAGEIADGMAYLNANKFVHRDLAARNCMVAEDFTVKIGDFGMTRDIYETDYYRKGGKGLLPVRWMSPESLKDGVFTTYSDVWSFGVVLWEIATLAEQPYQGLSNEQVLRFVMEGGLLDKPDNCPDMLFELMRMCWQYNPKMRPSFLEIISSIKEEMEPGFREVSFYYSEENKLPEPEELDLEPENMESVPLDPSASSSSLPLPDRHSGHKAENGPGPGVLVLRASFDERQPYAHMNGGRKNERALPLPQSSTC
Procedure: as §1, §2

[5] = target: PDGFR-ALPHA (Homo sapiens, UniProt P16234); test: Nanosyn in vitro kinase profiling: PDGFR-ALPHA; type: biochemical; conditions: for inhibition at 1 µM: compound at 1 μM
Procedure: as §1, §2

[6] = target: CDK2 (Homo sapiens, UniProt P24941); test: Nanosyn in vitro kinase profiling: CDK2; type: biochemical; conditions: for inhibition at 1 µM: compound at 1 μM
Procedure: as §1, §2

[7] = target: AMP-A1B1G1 (Homo sapiens, UniProt Q13131); test: Nanosyn in vitro kinase profiling: AMP-A1B1G1; type: biochemical; conditions: for inhibition at 1 µM: compound at 1 μM
Chain of AMP-A1B1G1 (Q13131 whole entry): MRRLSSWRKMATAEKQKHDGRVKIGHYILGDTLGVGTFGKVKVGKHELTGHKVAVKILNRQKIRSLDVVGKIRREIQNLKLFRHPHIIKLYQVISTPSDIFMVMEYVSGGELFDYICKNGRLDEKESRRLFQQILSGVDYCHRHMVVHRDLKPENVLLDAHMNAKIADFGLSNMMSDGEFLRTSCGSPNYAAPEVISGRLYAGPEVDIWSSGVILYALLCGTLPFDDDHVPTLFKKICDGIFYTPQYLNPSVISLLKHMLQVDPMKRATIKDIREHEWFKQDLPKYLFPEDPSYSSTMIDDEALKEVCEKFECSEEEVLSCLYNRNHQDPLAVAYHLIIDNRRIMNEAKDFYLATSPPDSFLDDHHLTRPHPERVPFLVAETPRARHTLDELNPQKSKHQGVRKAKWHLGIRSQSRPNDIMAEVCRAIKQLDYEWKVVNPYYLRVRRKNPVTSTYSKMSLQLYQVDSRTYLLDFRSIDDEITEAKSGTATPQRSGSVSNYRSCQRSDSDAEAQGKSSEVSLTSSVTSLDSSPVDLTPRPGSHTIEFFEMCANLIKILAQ
Chain of AMP-A1B1G1 (Q9Y478 whole entry partner): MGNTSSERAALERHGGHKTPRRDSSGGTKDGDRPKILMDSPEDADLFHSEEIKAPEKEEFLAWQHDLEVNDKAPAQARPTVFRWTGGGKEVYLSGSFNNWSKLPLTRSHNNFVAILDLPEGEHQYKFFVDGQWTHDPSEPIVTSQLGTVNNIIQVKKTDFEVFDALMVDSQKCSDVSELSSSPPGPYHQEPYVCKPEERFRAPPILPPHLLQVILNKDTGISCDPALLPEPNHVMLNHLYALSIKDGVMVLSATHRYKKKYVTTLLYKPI
Chain of AMP-A1B1G1 (P54619 whole entry partner): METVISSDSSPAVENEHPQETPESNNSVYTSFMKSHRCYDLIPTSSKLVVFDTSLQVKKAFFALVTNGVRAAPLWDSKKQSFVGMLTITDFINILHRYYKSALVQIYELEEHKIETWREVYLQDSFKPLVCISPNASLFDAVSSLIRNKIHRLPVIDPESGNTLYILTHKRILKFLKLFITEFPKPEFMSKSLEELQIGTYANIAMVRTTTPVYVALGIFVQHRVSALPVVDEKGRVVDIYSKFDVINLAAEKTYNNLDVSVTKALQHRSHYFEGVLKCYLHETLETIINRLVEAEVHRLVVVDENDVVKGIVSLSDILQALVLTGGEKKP
Procedure: as §1, §2

[8] = target: CSK (Homo sapiens, UniProt P41240); test: Nanosyn in vitro kinase profiling: CSK; type: biochemical; conditions: for inhibition at 1 µM: compound at 1 μM
Procedure: as §1, §2

[9] = target: MET (Homo sapiens, UniProt P08581); test: Nanosyn in vitro kinase profiling: MET; type: biochemical; conditions: for inhibition at 1 µM: compound at 1 μM
Chain of MET (P08581 25-1390): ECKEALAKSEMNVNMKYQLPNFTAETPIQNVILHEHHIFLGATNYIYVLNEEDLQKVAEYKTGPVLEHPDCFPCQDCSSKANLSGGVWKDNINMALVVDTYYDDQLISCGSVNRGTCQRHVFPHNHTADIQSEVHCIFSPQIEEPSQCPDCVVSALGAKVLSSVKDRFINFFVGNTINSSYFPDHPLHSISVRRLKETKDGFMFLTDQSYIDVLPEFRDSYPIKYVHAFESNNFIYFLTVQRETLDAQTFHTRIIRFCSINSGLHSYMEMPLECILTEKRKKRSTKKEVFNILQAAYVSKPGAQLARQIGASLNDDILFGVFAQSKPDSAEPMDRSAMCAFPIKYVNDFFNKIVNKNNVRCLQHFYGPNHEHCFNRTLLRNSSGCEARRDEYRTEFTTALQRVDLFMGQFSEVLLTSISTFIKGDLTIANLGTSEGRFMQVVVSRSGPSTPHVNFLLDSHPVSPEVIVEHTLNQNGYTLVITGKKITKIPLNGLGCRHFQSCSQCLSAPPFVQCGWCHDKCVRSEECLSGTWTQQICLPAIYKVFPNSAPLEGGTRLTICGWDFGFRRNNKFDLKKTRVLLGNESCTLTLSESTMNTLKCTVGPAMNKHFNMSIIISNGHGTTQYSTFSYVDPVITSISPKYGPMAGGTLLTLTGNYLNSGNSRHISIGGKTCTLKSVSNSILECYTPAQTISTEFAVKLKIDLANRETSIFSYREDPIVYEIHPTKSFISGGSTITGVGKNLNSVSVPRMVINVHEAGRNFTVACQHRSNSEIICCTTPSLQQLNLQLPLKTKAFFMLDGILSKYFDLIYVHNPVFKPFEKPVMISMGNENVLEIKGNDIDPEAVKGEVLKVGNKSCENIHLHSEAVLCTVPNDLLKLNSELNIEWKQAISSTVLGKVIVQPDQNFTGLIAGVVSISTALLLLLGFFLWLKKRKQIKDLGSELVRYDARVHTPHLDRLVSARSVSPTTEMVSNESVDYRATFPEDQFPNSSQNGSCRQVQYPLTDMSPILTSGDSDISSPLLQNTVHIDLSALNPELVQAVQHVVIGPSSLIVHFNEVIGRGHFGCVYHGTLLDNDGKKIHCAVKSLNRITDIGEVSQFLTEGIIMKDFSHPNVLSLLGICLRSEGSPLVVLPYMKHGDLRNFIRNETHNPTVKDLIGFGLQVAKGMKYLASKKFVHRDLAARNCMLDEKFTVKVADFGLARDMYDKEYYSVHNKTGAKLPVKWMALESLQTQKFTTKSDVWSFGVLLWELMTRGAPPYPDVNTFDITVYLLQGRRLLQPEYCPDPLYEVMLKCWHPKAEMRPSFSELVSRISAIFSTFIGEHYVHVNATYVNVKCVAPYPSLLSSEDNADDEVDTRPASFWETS
Procedure: as §1, §2

[10] = target: T1, MST1 (Homo sapiens, UniProt Q13043); test: Nanosyn in vitro kinase profiling: MST1; type: biochemical; conditions: for inhibition at 1 µM: compound at 1 μM
T1 sequence (Q13043 1-487): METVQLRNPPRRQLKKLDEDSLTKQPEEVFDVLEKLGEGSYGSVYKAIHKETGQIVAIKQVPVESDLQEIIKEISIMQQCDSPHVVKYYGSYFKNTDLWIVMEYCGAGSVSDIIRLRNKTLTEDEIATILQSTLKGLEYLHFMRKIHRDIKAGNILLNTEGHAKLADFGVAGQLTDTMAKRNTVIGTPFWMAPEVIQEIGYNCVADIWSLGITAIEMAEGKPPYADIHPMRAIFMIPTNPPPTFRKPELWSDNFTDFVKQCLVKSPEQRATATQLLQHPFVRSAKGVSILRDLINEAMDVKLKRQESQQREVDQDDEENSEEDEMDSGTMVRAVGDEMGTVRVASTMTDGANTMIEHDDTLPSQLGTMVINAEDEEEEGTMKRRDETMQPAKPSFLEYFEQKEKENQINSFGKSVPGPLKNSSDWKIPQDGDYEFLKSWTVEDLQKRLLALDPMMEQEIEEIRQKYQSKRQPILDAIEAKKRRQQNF
Procedure: as §1, §2

[11] = target: T2, ITK (Homo sapiens, UniProt Q08881); test: Nanosyn in vitro kinase profiling: ITK; type: biochemical; conditions: for inhibition at 1 µM: compound at 1 μM
T2 sequence (Q08881 1-620): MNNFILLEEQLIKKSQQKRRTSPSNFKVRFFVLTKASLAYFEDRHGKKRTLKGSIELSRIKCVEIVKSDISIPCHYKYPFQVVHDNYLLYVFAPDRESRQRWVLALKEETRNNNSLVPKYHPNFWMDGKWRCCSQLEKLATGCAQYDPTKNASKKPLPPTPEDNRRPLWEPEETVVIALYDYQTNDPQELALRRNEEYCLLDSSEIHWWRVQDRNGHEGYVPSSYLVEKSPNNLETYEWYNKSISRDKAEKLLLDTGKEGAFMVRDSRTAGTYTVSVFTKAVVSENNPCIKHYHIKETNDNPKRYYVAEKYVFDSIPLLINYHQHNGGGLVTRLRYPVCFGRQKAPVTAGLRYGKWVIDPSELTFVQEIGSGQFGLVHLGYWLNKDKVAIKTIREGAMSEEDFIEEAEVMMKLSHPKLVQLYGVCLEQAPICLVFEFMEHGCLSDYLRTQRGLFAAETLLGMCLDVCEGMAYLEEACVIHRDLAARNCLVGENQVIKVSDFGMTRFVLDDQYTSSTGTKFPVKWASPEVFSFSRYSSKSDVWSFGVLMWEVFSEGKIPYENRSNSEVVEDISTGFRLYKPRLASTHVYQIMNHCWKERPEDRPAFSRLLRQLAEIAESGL
Procedure: as §1, §2

[12] = target: GSK-3-BETA (Homo sapiens, UniProt P49841); test: Nanosyn in vitro kinase profiling: GSK-3-BETA; type: biochemical; conditions: for inhibition at 1 µM: compound at 1 μM
Chain of GSK-3-BETA (P49841 whole entry): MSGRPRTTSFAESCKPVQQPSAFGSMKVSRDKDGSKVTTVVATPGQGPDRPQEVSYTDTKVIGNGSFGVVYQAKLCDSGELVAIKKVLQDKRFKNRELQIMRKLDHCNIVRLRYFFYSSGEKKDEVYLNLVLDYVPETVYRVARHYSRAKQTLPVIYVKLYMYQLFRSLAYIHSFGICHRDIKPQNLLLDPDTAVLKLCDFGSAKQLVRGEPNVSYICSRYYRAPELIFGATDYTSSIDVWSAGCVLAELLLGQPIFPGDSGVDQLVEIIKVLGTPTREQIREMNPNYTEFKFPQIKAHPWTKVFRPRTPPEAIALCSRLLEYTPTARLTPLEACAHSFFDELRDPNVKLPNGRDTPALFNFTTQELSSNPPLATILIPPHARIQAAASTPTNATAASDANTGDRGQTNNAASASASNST
Procedure: as §1, §2

| inhibition at 1 µM [3] | inhibition at 1 µM [4] | inhibition at 1 µM [5] | inhibition at 1 µM [6] | inhibition at 1 µM [7] | inhibition at 1 µM [8] | inhibition at 1 µM [9] | inhibition at 1 µM [10] | inhibition at 1 µM [11] | inhibition at 1 µM [12] | SMILES | IC50 [1] | also measured |
| --- | --- | --- | --- | --- | --- | --- | --- | --- | --- | --- | --- | --- |
|  |  |  |  |  |  |  |  |  |  | CS(=O)(=O)CCNCc1ccc(-c2ccc3ncnc(Nc4ccc(OCc5cccc(F)c5)c(Cl)c4)c3c2)o1 [lapatinib] | > 3330 nM | efficacy on signaling, 15 min pre-treat vs simultaneous addition with NRG ([2]; MCF-7, serum starved 24 h): reduced efficacy of lapatinib when simultaneously added with NRG |
| 7% | 46% | 66% | 10% | 20% | 62% | 16% | 84% | 24% | 40% | COc1ccc(-c2ccoc2)cc1Nc1ncnc2[nH]cc(-c3cc[nH]n3)c12 [compound 3, N-(5-(furan-3-yl)-2-methoxyphenyl)-5-(1H-pyrazol-3-yl)-7H-pyrrolo[2,3-d]pyrimidin-4-amine] | 2540 ± 217 nM | shift in ability to inhibit signaling +/- pre-incubation ([2]; MCF-7, 15 min pre-treat vs simultaneous NRG): little to no shift |
| 8.71% | 53.3% | 52.5% | 17.6% | 12.9% | 24.8% | 10.1% | 19.9% | 13.9% | 68.8% | COc1ccc(-c2ccco2)cc1Nc1ncnc2[nH]nc(-c3ccco3)c12 [compound 2, 3-(furan-2-yl)-N-(5-(furan-2-yl)-2-methoxyphenyl)-1H-pyrazolo[3,4-d]pyrimidin-4-amine] |  | inhibition at 0.1 µM ([3]; compound at 100 nM): 4.08%; inhibition at 0.1 µM ([4]; compound at 100 nM): 13.3%; inhibition at 0.1 µM ([5]; compound at 100 nM): 11.8%; inhibition at 0.1 µM ([6]; compound at 100 nM): 4.14%; inhibition at 0.1 µM ([7]; compound at 100 nM): 2.69%; inhibition at 0.1 µM ([8]; compound at 100 nM): 6.96%; inhibition at 0.1 µM ([9]; compound at 100 nM): 2.04%; inhibition at 0.1 µM ([10]; compound at 100 nM): 3.85%; inhibition at 0.1 µM ([11]; compound at 100 nM): 1.24%; inhibition at 0.1 µM ([12]; compound at 100 nM): 20.5% |
